Data as given in patent US12696901B2, “Pesticidally active heterocyclic derivatives with sulfur containing substituents” (SYNGENTA CROP PROTECTION AG, priority 2020, dated 2026).

Columns and labels:
Assay type in all cases: in vivo
[1] = tested on: Bemisia tabaci (Cotton White Fly); assay: Activity against Bemisia tabaci (cotton white fly), sprayed cotton leaf discs; conditions: foliar, 144 h, application rate 200 ppm, adult white flies, 6 days after incubation
Protocol: Example B1: Activity Against Bemisia tabaci (Cotton White Fly)
Cotton leaf discs were placed on agar in 24-well microtiter plates and sprayed with aqueous test solutions prepared from 10,000 ppm DMSO stock solutions. After drying the leaf discs were infested with adult white flies. The samples were checked for mortality 6 days after incubation.

[2] = tested on: Diabrotica balteata (Corn Root Worm); assay: Activity against Diabrotica balteata (corn root worm), sprayed maize sprouts on agar; conditions: 96 h, application rate 200 ppm, L2 larvae, 4 days after infestation, read-out: effect in at least one of the two categories (mortality or growth inhibition)
Protocol: Example B2: Activity Against Diabrotica balteata (Corn Root Worm)
Maize sprouts placed onto an agar layer in 24-well microtiter plates were treated with aqueous test solutions prepared from 10,000 ppm DMSO stock solutions by spraying. After drying, the plates were infested with L2 larvae (6 to 10 per well). The samples were assessed for mortality and growth inhibition in comparison to untreated samples 4 days after infestation.

[3] = tested on: Euschistus heros (Neotropical Brown Stink Bug); assay: Activity against Euschistus heros (neotropical brown stink bug), sprayed soybean leaves; conditions: 120 h, application rate 200 ppm, N2 nymphs, 5 days after infestation, read-out: effect in at least one of the two categories (mortality or growth inhibition)
Protocol: Example B3: Activity Against Euschistus heros (Neotropical Brown Stink Bug)
Soybean leaves on agar in 24-well microtiter plates were sprayed with aqueous test solutions prepared from 10,000 ppm DMSO stock solutions. After drying the leaves were infested with N2 nymphs. The samples were assessed for mortality and growth inhibition in comparison to untreated samples 5 days after infestation.

[4] = tested on: Plutella xylostella (Diamond Back Moth); assay: Activity against Plutella xylostella (diamond back moth), treated artificial diet; conditions: 192 h, application rate 200 ppm, eggs, 8 days after infestation, read-out: effect in at least one of the two categories (mortality or growth inhibition)
Protocol: Example B5: Activity Against Plutella xylostella (Diamond Back Moth)
24-well microtiter plates with artificial diet were treated with aqueous test solutions prepared from 10,000 ppm DMSO stock solutions by pipetting. After drying, Plutella eggs were pipetted through a plastic stencil onto a gel blotting paper and the plate was closed with it. The samples were assessed for mortality and growth inhibition in comparison to untreated samples 8 days after infestation.

[5] = tested on: Myzus persicae (Green Peach Aphid); assay: Activity against Myzus persicae (green peach aphid), feeding/contact activity; conditions: 144 h, application rate 200 ppm, mixed ages, 6 days after infestation
Protocol: Example B6: Activity Against Myzus persicae (Green Peach Aphid) Feeding/Contact Activity
Sunflower leaf discs were placed onto agar in a 24-well microtiter plate and sprayed with aqueous test solutions prepared from 10,000 ppm DMSO stock solutions. After drying, the leaf discs were infested with an aphid population of mixed ages. The samples were assessed for mortality 6 days after infestation.

[6] = tested on: Spodoptera littoralis (Egyptian Cotton Leaf Worm); assay: Activity against Spodoptera littoralis (Egyptian cotton leaf worm), sprayed cotton leaf discs; conditions: foliar, 72 h, application rate 200 ppm, L1 larvae, 3 days after infestation
Protocol: Example B7: Activity Against Spodoptera littoralis (Egyptian Cotton Leaf Worm)
Cotton leaf discs were placed onto agar in 24-well microtiter plates and sprayed with aqueous test solutions prepared from 10,000 ppm DMSO stock solutions. After drying the leaf discs were infested with five L1 larvae. The samples were assessed for mortality, anti-feeding effect, and growth inhibition in comparison to untreated samples 3 days after infestation. Control of Spodoptera littoralis by a test sample is given when at least one of the categories mortality, anti-feedant effect, and growth inhibition is higher than the untreated sample.

[7] = tested on: Carpocapsa (Cydia) Pomonella (Codling Moth); assay: Activity against Carpocapsa (Cydia) pomonella (codling moth), sprayed diet cubes; conditions: 336 h, application rate 12.5 ppm, L1 larvae, 14 days after infestation, read-out: effect in at least one of the two categories (mortality or growth inhibition)
Protocol: Example B11: Activity Against Carpocapsa (Cydia) Pomonella (Codling Moth)
Diet cubes coated with paraffin were sprayed with diluted test solutions in an application chamber. After drying off the treated cubes (10 replicates) were infested with 1 L1 larvae. Samples were incubated at 26-27° C. and checked 14 days after infestation for mortality and growth inhibition. The following compounds gave an effect of at least 80% in at least one of the two categories (mortality or growth inhibition) at an application rate of 12.5 ppm: P1, P2, P3, P4, P5, P6, P10, P11, P12, P14, P15, P16, P17, P19, P20, P21, P22, P24, P27, P29, P30, P33, P34, P35.

[8] = tested on: Diabrotica balteata (Corn Root Worm); assay: Activity against Diabrotica balteata (corn root worm), corn seedlings on filter paper in cups; conditions: 120 h, application rate 3 ppm, L2 larva, 5 days after treatment, read-out: effect in at least one of the two categories (mortality or growth inhibition)
Protocol: Example B12: Activity Against Diabrotica Balteata (Corn Root Worm)
Three corn seedlings were placed on wetted filter paper in plastic cups, and 3 ml of diluted test solutions were pipetted onto them. The cups were infested with 10 L2 larva and checked for mortality and growth regulation 5 days after treatment.

[9] = tested on: Chilo suppressalis (Striped Rice Stemborer); assay: Activity against Chilo suppressalis (striped rice stemborer), treated artificial diet; conditions: 144 h, application rate 200 ppm, L2 larvae, 6 days after infestation
Protocol: Example B10: Activity Against Chilo suppressalis (Striped Rice Stemborer)
24-well microtiter plates with artificial diet were treated with aqueous test solutions prepared from 10,000 ppm DMSO stock solutions by pipetting. After drying, the plates were infested with L2 larvae (6-8 per well). The samples were assessed for mortality, anti-feeding effect, and growth inhibition in comparison to untreated samples 6 days after infestation. Control of Chilo suppressalis by a test sample is given when at least one of the categories mortality, anti-feedant effect, and growth inhibition is higher than the untreated sample.

CCS(=O)(=O)c1c(N2Cc3cnc(C(F)(F)F)cc3C2=O)sc2cc(C(F)(F)F)ccc12 [Compound P1, 2-[3-ethylsulfonyl-6-(trifluoromethyl)benzothiophen-2-yl]-6-(trifluoromethyl)-3H-pyrrolo[3,4-c]pyridin-1-one]
≥ 80%: mortality at 200 ppm [1] | percent effect (mortality or growth inhibition) at 200 ppm [2] | percent effect (mortality or growth inhibition) at 200 ppm [3] | percent effect (mortality or growth inhibition) at 200 ppm [4] | mortality at 200 ppm [5] | percent control (mortality, anti-feedant effect or growth inhibition) at 200 ppm [6] | percent effect (mortality or growth inhibition) at 12.5 ppm [7] | percent effect (mortality or growth inhibition) at 3 ppm [8]

CCS(=O)(=O)c1c(N2Cc3ncc(C(F)(F)F)cc3C2=O)nc2ccc(C(F)(F)F)cn12 [Compound P4, 6-[3-ethylsulfonyl-6-(trifluoromethyl)imidazo[1,2-a]pyridin-2-yl]-3-(trifluoromethyl)-7H-pyrrolo[3,4-b] pyridin-5-one]
≥ 80%: mortality at 200 ppm [1] | percent effect (mortality or growth inhibition) at 200 ppm [2] | percent effect (mortality or growth inhibition) at 200 ppm [3] | percent effect (mortality or growth inhibition) at 200 ppm [4] | mortality at 200 ppm [5] | percent control (mortality, anti-feedant effect or growth inhibition) at 200 ppm [6] | percent effect (mortality or growth inhibition) at 12.5 ppm [7] | percent effect (mortality or growth inhibition) at 3 ppm [8]

CCS(=O)(=O)c1c(N2Cc3ccc(OC(F)(F)F)cc3C2=O)nc2ccc(C(F)(F)F)cn12 [Compound P6, 2-[3-ethylsulfonyl-6-(trifluoromethyl)imidazo[1,2-a]pyridin-2-yl]-6-(trifluoromethoxy) isoindolin-1-one]
≥ 80%: mortality at 200 ppm [1] | percent effect (mortality or growth inhibition) at 200 ppm [2] | percent effect (mortality or growth inhibition) at 200 ppm [3] | percent effect (mortality or growth inhibition) at 200 ppm [4] | mortality at 200 ppm [5] | percent control (mortality, anti-feedant effect or growth inhibition) at 200 ppm [6] | percent effect (mortality or growth inhibition) at 12.5 ppm [7] | percent effect (mortality or growth inhibition) at 3 ppm [8]

CCS(=O)(=O)c1c(N2Cc3ccc(OC(F)(F)F)cc3C2=O)nc2cc(C(F)(F)F)ccn12 [Compound P7, 2-[3-ethylsulfonyl-7-(trifluoromethyl)imidazo[1,2-a]pyridin-2-yl]-6-(trifluoromethoxy) isoindolin-1-one]
≥ 80%: mortality at 200 ppm [1] | percent effect (mortality or growth inhibition) at 200 ppm [2] | percent effect (mortality or growth inhibition) at 200 ppm [4] | mortality at 200 ppm [5] | percent control (mortality, anti-feedant effect or growth inhibition) at 200 ppm [6] | percent effect (mortality or growth inhibition) at 3 ppm [8]

CCS(=O)(=O)c1c(N2Cc3ncc(C(F)(F)F)cc3C2=O)nc2ccc(OCC(F)F)cn12 [Compound P19, 6-[6-(2,2-difluoroethoxy)-3-ethylsulfonyl-imidazo[1,2-a]pyridin-2-yl]-3-(trifluoromethyl)-7H-pyrrolo[3,4-b]pyridin-5-one]
≥ 80%: percent effect (mortality or growth inhibition) at 200 ppm [2] | percent effect (mortality or growth inhibition) at 200 ppm [3] | percent effect (mortality or growth inhibition) at 200 ppm [4] | mortality at 200 ppm [5] | percent control (mortality, anti-feedant effect or growth inhibition) at 200 ppm [6] | percent control (mortality, anti-feedant effect or growth inhibition) at 200 ppm [9] | percent effect (mortality or growth inhibition) at 12.5 ppm [7] | percent effect (mortality or growth inhibition) at 3 ppm [8]

CCS(=O)(=O)c1c(N2Cc3ncc(C(F)(F)F)cc3C2=O)nc2ccc(OC(C)(C)C#N)cn12 [Compound P20, 2-[3-ethylsulfonyl-2-[5-oxo-3-(trifluoromethyl)-7H-pyrrolo[3,4-b]pyridin-6-yl]imidazo [1,2-a]pyridin-6-yl] oxy-2-methyl-propanenitrile]
≥ 80%: mortality at 200 ppm [1] | percent effect (mortality or growth inhibition) at 200 ppm [2] | percent effect (mortality or growth inhibition) at 200 ppm [4] | mortality at 200 ppm [5] | percent control (mortality, anti-feedant effect or growth inhibition) at 200 ppm [6] | percent control (mortality, anti-feedant effect or growth inhibition) at 200 ppm [9] | percent effect (mortality or growth inhibition) at 12.5 ppm [7] | percent effect (mortality or growth inhibition) at 3 ppm [8]

CCS(=O)(=O)c1c(N2Cc3ncc(C(F)(F)F)cc3C2=O)nc2ccc(Br)cn12 [Compound P21, 6-(6-bromo-3-ethylsulfonyl-imidazo[1,2-a]pyridin-2-yl)-3-(trifluoromethyl)-7H-pyrrolo[3,4-b]pyridin-5-one]
≥ 80%: percent effect (mortality or growth inhibition) at 200 ppm [2] | percent effect (mortality or growth inhibition) at 200 ppm [3] | percent effect (mortality or growth inhibition) at 200 ppm [4] | mortality at 200 ppm [5] | percent control (mortality, anti-feedant effect or growth inhibition) at 200 ppm [6] | percent control (mortality, anti-feedant effect or growth inhibition) at 200 ppm [9] | percent effect (mortality or growth inhibition) at 12.5 ppm [7] | percent effect (mortality or growth inhibition) at 3 ppm [8]

CCS(=O)(=O)c1c(N2Cc3ncc(C(F)(F)F)cc3C2=O)nc2cc(C3CC3)ccn12 [Compound P24, 6-(7-cyclopropyl-3-ethylsulfonyl-imidazo[1,2-a]pyridin-2-yl)-3-(trifluoromethyl)-7H-pyrrolo[3,4-b]pyridin-5-one]
≥ 80%: percent effect (mortality or growth inhibition) at 200 ppm [2] | percent effect (mortality or growth inhibition) at 200 ppm [3] | percent effect (mortality or growth inhibition) at 200 ppm [4] | mortality at 200 ppm [5] | percent control (mortality, anti-feedant effect or growth inhibition) at 200 ppm [6] | percent control (mortality, anti-feedant effect or growth inhibition) at 200 ppm [9] | percent effect (mortality or growth inhibition) at 12.5 ppm [7] | percent effect (mortality or growth inhibition) at 3 ppm [8]

CCS(=O)(=O)c1c(N2Cc3ccc(OC(F)(F)F)cc3C2=O)nc2ccc(OC(C)(C)C#N)cn12 [Compound P26, 2-[3-ethylsulfonyl-2-[1-oxo-6-(trifluoromethoxy)isoindolin-2-yl]imidazo[1,2-a]pyridin-6-yl]oxy-2-methyl-propanenitrile]
≥ 80%: mortality at 200 ppm [1] | percent effect (mortality or growth inhibition) at 200 ppm [2] | percent effect (mortality or growth inhibition) at 200 ppm [4] | mortality at 200 ppm [5] | percent control (mortality, anti-feedant effect or growth inhibition) at 200 ppm [6] | percent control (mortality, anti-feedant effect or growth inhibition) at 200 ppm [9] | percent effect (mortality or growth inhibition) at 3 ppm [8]
